According to PMC7156458, “Synthetic biology based construction of biological activity-related library of fungal decalin-containing diterpenoid pyrones” (Nature Communications, 2020):

Biological target: Aβ42 (Homo sapiens, UniProt P05067)
Assay: Th-T (thioflavin-T) assay of Aβ42 aggregation
Assay type: biochemical

Aβ42, sequence (P05067 672-713): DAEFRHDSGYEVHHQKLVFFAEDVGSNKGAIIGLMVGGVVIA

## C=C1CC[C@@H]2[C@](C)(CC[C@H]3O[C@H](C=C(C)C)C[C@@]23C)[C@@H]1Cc1c(OC)oc(CO)c(C)c1=O [Compound 20]
Column suffix _20, reading M101
  Fig. 7a Th-T reading, mean of three wells: 3.25
Column suffix _20, reading M102
  Fig. 7a Th-T reading, mean of three wells: 3.237
Column suffix _20, reading M103
  Fig. 7a Th-T reading, mean of three wells: 3.23
Column suffix _20, reading M104
  Fig. 7a Th-T reading, mean of three wells: 3.246
Column suffix _20, reading M105
  Fig. 7a Th-T reading, mean of three wells: 3.269
Column suffix _20, reading M106
  Fig. 7a Th-T reading, mean of three wells: 3.248
Column suffix _50, measurement M19
  Th-T fluorescence, mean of three wells (Fig. 7a): 2.199
Column suffix _50, measurement M20
  Th-T fluorescence, mean of three wells (Fig. 7a): 2.217
Column suffix _50, measurement M21
  Th-T fluorescence, mean of three wells (Fig. 7a): 2.224
Column suffix _50, measurement M22
  Th-T fluorescence, mean of three wells (Fig. 7a): 2.216
Column suffix _50, measurement M23
  Th-T fluorescence, mean of three wells (Fig. 7a): 2.205
Column suffix _50, measurement M24
  Th-T fluorescence, mean of three wells (Fig. 7a): 2.2076
Column suffix _50, measurement M25
  Th-T fluorescence, mean of three wells (Fig. 7a): 2.21
Column suffix _50, measurement M26
  Th-T fluorescence, mean of three wells (Fig. 7a): 2.22
Column suffix _50, measurement M27
  Th-T fluorescence, mean of three wells (Fig. 7a): 2.2221
Column suffix _50, measurement M28
  Th-T fluorescence, mean of three wells (Fig. 7a): 2.198
Column suffix _50, measurement M29
  Th-T fluorescence, mean of three wells (Fig. 7a): 2.193
Column suffix _50, reading M1
  Th-T assay signal, mean of three wells (Fig. 7a): 0.1908
Column suffix _50, reading M2
  Th-T assay signal, mean of three wells (Fig. 7a): 0.1991
Column suffix _50, reading M3
  Th-T assay signal, mean of three wells (Fig. 7a): 0.2032
Column suffix _50, reading M4
  Th-T assay signal, mean of three wells (Fig. 7a): 0.2087
Column suffix _50, reading M5
  Th-T assay signal, mean of three wells (Fig. 7a): 0.2172
Column suffix _50, reading M6
  Th-T assay signal, mean of three wells (Fig. 7a): 0.2431
Column suffix _50, reading M7
  Th-T assay signal, mean of three wells (Fig. 7a): 0.2722
Column suffix _50, reading M8
  Th-T assay signal, mean of three wells (Fig. 7a): 0.3931
Column suffix _50, reading M9
  Th-T assay signal, mean of three wells (Fig. 7a): 0.6726
Column suffix _50, reading M10
  Th-T assay signal, mean of three wells (Fig. 7a): 1.1256
Column suffix _50, reading M11
  Th-T assay signal, mean of three wells (Fig. 7a): 1.605
Column suffix _50, reading M12
  Th-T assay signal, mean of three wells (Fig. 7a): 1.883
Column suffix _50, reading M13
  Th-T assay signal, mean of three wells (Fig. 7a): 2.0174
Column suffix _50, reading M14
  Th-T assay signal, mean of three wells (Fig. 7a): 2.101
Column suffix _50, reading M15
  Th-T assay signal, mean of three wells (Fig. 7a): 2.147
Column suffix _50, reading M16
  Th-T assay signal, mean of three wells (Fig. 7a): 2.173
Column suffix _50, reading M17
  Th-T assay signal, mean of three wells (Fig. 7a): 2.183
Column suffix _50, reading M18
  Th-T assay signal, mean of three wells (Fig. 7a): 2.192
Column suffix _50, reading M85
  Fig. 7a Th-T reading, mean of three wells: 2.067
Column suffix _50, reading M86
  Fig. 7a Th-T reading, mean of three wells: 2.077
Column suffix _50, reading M87
  Fig. 7a Th-T reading, mean of three wells: 2.082
Column suffix _50, reading M88
  Fig. 7a Th-T reading, mean of three wells: 2.092
Column suffix _50, reading M89
  Fig. 7a Th-T reading, mean of three wells: 2.095
Column suffix _50, reading M90
  Fig. 7a Th-T reading, mean of three wells: 2.096
Column suffix _50, reading M91
  Fig. 7a Th-T reading, mean of three wells: 2.085
Column suffix _50, reading M92
  Fig. 7a Th-T reading, mean of three wells: 2.089
Column suffix _50, reading M93
  Fig. 7a Th-T reading, mean of three wells: 2.088
Column suffix _50, reading M94
  Fig. 7a Th-T reading, mean of three wells: 2.094
Column suffix _50, reading M95
  Fig. 7a Th-T reading, mean of three wells: 2.0955
Column suffix _50, reading M96
  Fig. 7a Th-T reading, mean of three wells: 2.087
Column suffix _50, reading M97
  Fig. 7a Th-T reading, mean of three wells: 2.084
Column suffix _50, reading M98
  Fig. 7a Th-T reading, mean of three wells: 2.09
Column suffix _50, reading M99
  Fig. 7a Th-T reading, mean of three wells: 2.099
Column suffix _50, reading M100
  Fig. 7a Th-T reading, mean of three wells: 2.117
Column suffix _50, reading M101
  Fig. 7a Th-T reading, mean of three wells: 2.093
Column suffix _50, reading M102
  Fig. 7a Th-T reading, mean of three wells: 2.09
Column suffix _50, reading M103
  Fig. 7a Th-T reading, mean of three wells: 2.088
Column suffix _50, reading M104
  Fig. 7a Th-T reading, mean of three wells: 2.099
Column suffix _50, reading M105
  Fig. 7a Th-T reading, mean of three wells: 2.107
Column suffix _50, reading M106
  Fig. 7a Th-T reading, mean of three wells: 2.096
Compound at 10, reading M41 of time course
  Th-T fluorescence, mean of three wells: 3.473
Compound at 10, reading M42 of time course
  Th-T fluorescence, mean of three wells: 3.463
Compound at 10, reading M43 of time course
  Th-T fluorescence, mean of three wells: 3.47
Compound at 10, reading M44 of time course
  Th-T fluorescence, mean of three wells: 3.466
Compound at 10, reading M45 of time course
  Th-T fluorescence, mean of three wells: 3.48
Compound at 10, reading M46 of time course
  Th-T fluorescence, mean of three wells: 3.474
Compound at 10, reading M47 of time course
  Th-T fluorescence, mean of three wells: 3.473
Compound at 10, reading M48 of time course
  Th-T fluorescence, mean of three wells: 3.454
Compound at 10, reading M49 of time course
  Th-T fluorescence, mean of three wells: 3.4597
Compound at 10, reading M50 of time course
  Th-T fluorescence, mean of three wells: 3.479
Compound at 10, reading M51 of time course
  Th-T fluorescence, mean of three wells: 3.451
Compound at 10, reading M52 of time course
  Th-T fluorescence, mean of three wells: 3.467
Compound at 10, reading M53 of time course
  Th-T fluorescence, mean of three wells: 3.449
Compound at 10, reading M54 of time course
  Th-T fluorescence, mean of three wells: 3.468
Compound at 10, reading M55 of time course
  Th-T fluorescence, mean of three wells: 3.479
Compound at 10, reading M56 of time course
  Th-T fluorescence, mean of three wells: 3.4836
Compound at 10, reading M57 of time course
  Th-T fluorescence, mean of three wells: 3.456
Compound at 10, reading M58 of time course
  Th-T fluorescence, mean of three wells: 3.464
Compound at 10, reading M59 of time course
  Th-T fluorescence, mean of three wells: 3.461
Compound at 10, reading M60 of time course
  Th-T fluorescence, mean of three wells: 3.452
Compound at 10, reading M61 of time course
  Th-T fluorescence, mean of three wells: 3.461
Compound at 10, reading M62 of time course
  Th-T fluorescence, mean of three wells: 3.452
Compound at 20, reading M41 of time course
  Th-T fluorescence, mean of three wells: 3.421
Compound at 20, reading M42 of time course
  Th-T fluorescence, mean of three wells: 3.4495
Compound at 20, reading M43 of time course
  Th-T fluorescence, mean of three wells: 3.4108
Compound at 20, reading M44 of time course
  Th-T fluorescence, mean of three wells: 3.412
Compound at 20, reading M45 of time course
  Th-T fluorescence, mean of three wells: 3.402
Compound at 20, reading M46 of time course
  Th-T fluorescence, mean of three wells: 3.446
Compound at 20, reading M47 of time course
  Th-T fluorescence, mean of three wells: 3.447
Compound at 20, reading M48 of time course
  Th-T fluorescence, mean of three wells: 3.449
Compound at 20, reading M49 of time course
  Th-T fluorescence, mean of three wells: 3.413
Compound at 20, reading M50 of time course
  Th-T fluorescence, mean of three wells: 3.443
Compound at 20, reading M51 of time course
  Th-T fluorescence, mean of three wells: 3.447
Compound at 20, reading M52 of time course
  Th-T fluorescence, mean of three wells: 3.466
Compound at 20, reading M53 of time course
  Th-T fluorescence, mean of three wells: 3.442
Compound at 20, reading M54 of time course
  Th-T fluorescence, mean of three wells: 3.43
Compound at 20, reading M55 of time course
  Th-T fluorescence, mean of three wells: 3.418
Compound at 20, reading M56 of time course
  Th-T fluorescence, mean of three wells: 3.449
Compound at 20, reading M57 of time course
  Th-T fluorescence, mean of three wells: 3.4659
Compound at 20, reading M58 of time course
  Th-T fluorescence, mean of three wells: 3.449
Compound at 20, reading M59 of time course
  Th-T fluorescence, mean of three wells: 3.427
Compound at 20, reading M60 of time course
  Th-T fluorescence, mean of three wells: 3.432
Compound at 20, reading M61 of time course
  Th-T fluorescence, mean of three wells: 3.433
Compound at 20, reading M62 of time course
  Th-T fluorescence, mean of three wells: 3.454
Compound at 50, reading M41 of time course
  Th-T fluorescence, mean of three wells: 2.136
Compound at 50, reading M42 of time course
  Th-T fluorescence, mean of three wells: 2.134
Compound at 50, reading M43 of time course
  Th-T fluorescence, mean of three wells: 2.091
Compound at 50, reading M44 of time course
  Th-T fluorescence, mean of three wells: 2.118
Compound at 50, reading M45 of time course
  Th-T fluorescence, mean of three wells: 2.11
Compound at 50, reading M46 of time course
  Th-T fluorescence, mean of three wells: 2.107
Compound at 50, reading M47 of time course
  Th-T fluorescence, mean of three wells: 2.113
Compound at 50, reading M48 of time course
  Th-T fluorescence, mean of three wells: 2.125
Compound at 50, reading M49 of time course
  Th-T fluorescence, mean of three wells: 2.092
Compound at 50, reading M50 of time course
  Th-T fluorescence, mean of three wells: 2.091
Compound at 50, reading M51 of time course
  Th-T fluorescence, mean of three wells: 2.089
Compound at 50, reading M52 of time course
  Th-T fluorescence, mean of three wells: 2.103
Compound at 50, reading M53 of time course
  Th-T fluorescence, mean of three wells: 2.105
